In this assay the target is PI3Kβ (Homo sapiens (Human), UniProt P42338). Kind of assay: TR-FRET enzymatic activity assay, PI3Kβ. The assay is classed as biochemical. The following applies: 2× Km ATP, 2 μM PIP2, 30 minutes at 25° C., read-out: IC50-PIP-Beta. The essentials: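 Purified recombinant heterodimeric PI3Kβ; PIP3 formation read by TR-FRET as competition with fluorescent tracer for GRP-1 PH domain binding. Compounds incubated 30 min at 25 °C.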
Sequence of PI3Kβ (P42338 whole entry, the tested form may be a part): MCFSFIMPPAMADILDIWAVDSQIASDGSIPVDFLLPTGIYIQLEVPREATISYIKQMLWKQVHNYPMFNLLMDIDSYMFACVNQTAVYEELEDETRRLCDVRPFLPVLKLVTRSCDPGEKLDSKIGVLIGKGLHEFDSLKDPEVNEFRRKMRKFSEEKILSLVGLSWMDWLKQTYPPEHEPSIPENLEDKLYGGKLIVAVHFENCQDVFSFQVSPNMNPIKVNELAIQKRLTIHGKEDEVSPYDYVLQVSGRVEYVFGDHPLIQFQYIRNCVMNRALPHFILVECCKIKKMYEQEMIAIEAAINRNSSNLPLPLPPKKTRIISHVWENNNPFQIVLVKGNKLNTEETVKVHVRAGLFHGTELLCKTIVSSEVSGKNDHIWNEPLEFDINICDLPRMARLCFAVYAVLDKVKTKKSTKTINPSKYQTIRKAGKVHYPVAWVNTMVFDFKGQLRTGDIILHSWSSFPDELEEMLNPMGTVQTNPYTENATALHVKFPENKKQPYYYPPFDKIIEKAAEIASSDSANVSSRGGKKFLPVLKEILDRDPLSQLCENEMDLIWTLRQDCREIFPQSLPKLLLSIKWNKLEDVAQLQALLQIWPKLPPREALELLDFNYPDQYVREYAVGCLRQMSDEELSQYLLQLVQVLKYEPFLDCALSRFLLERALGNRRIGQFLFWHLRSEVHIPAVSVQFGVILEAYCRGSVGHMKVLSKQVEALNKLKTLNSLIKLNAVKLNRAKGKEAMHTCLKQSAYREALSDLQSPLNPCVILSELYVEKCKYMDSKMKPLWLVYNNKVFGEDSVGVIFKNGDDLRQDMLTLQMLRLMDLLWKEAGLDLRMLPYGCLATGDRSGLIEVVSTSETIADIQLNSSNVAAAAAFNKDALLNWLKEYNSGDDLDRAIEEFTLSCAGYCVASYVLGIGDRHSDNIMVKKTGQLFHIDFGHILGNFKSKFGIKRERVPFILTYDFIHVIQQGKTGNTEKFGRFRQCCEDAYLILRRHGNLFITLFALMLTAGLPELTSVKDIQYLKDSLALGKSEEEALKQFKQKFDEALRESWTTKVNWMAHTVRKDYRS
Sequence of PI3Kβ (P27986 whole entry partner, the tested form may be a part): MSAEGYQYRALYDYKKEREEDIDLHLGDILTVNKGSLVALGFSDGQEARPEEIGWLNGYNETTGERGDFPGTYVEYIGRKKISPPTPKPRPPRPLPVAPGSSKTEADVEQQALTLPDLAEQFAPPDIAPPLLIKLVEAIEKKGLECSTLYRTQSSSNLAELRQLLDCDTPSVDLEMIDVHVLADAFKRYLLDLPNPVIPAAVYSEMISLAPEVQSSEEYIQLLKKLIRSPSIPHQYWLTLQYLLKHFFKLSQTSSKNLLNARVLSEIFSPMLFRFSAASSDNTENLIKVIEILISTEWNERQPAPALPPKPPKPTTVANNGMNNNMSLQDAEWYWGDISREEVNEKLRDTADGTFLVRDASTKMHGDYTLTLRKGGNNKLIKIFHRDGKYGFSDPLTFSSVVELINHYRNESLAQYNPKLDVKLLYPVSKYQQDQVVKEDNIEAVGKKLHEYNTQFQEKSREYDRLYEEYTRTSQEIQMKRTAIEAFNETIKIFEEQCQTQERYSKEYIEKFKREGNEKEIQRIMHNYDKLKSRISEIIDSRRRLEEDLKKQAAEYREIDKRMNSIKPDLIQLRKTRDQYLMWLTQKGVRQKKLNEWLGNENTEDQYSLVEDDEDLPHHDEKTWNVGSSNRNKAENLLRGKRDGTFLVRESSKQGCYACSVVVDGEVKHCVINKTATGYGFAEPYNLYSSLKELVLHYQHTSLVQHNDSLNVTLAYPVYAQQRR

As to `Cc1nc2c(-c3nnc[nH]3)cc(-c3ccnc(C#N)c3)cc2n1-c1ccnc2c(F)ccc(Cl)c12` (single isomer, unassigned) [Example 124, 4-(1-(5-chloro-8-fluoroquinolin-4-yl)-2-methyl-4-(4H-1,2,4-triazol-3-yl)-1H-benzo[d]imidazol-6-yl)picolinonitrile], the IC50 (usually the point on the concentration scale where inhibition reaches its midpoint) amounted to 160 nM. To `CCCc1nc2c(-c3nnc[nH]3)cc(-c3ccnc(N)c3)cc2n1-c1ccnc2c(Cl)ccc(F)c12` [Example 63, 4-[3-(8-chloro-5-fluoroquinolin-4-yl)-2-propyl-7-(4H-1,2,4-triazol-3-yl)benzimidazol-5-yl]pyridin-2-amine] belongs 7 nM; to `Clc1cccc2c(-n3cnc4c(-c5ncn[nH]5)cc(-c5ccncc5)cc43)ccnc12` [Example 27, 8-chloro-4-[6-pyridin-4-yl-4-(1H-1,2,4-triazol-5-yl)benzimidazol-1-yl]quinoline], 5 nM; to `Cc1nc2c(-c3nnc[nH]3)cc(-c3ccnc(C#N)c3)cc2n1-c1ccnc2c(F)ccc(F)c12` (single isomer, unassigned) [Example 113, 4-[3-(5,8-difluoroquinolin-4-yl)-2-methyl-7-(4H-1,2,4-triazol-3-yl)benzimidazol-5-yl]pyridine-2-carbonitrile], 2 nM.

Consider `Cc1nc2c(-c3nnc[nH]3)cc(-c3c(F)cnc(N)c3F)cc2n1-c1ccnc2c(F)ccc(F)c12` [Example 100, 4-[3-(5,8-difluoroquinolin-4-yl)-2-methyl-7-(4H-1,2,4-triazol-3-yl)benzimidazol-5-yl]-3,5-difluoropyridin-2-amine], for which the IC50 amounted to 320 nM. As for `Cc1cc(-c2cc(-c3nnc[nH]3)c3nc(C)n(-c4ccnc5c(F)ccc(F)c45)c3c2)ccn1` (single isomer, unassigned) [Example 141, 5,8-difluoro-4-(2-methyl-6-(2-methylpyridin-4-yl)-4-(4H-1,2,4-triazol-3-yl)-1H-benzo[d]imidazol-1-yl)quinoline], the figure is 120 nM; as for `Cc1nc2c(-c3nnc[nH]3)cc(-c3ccnc(N)c3)cc2n1-c1ccnc2c(F)ccc(F)c12` (single isomer, unassigned) [Example 103, 4-(1-(5,8-difluoroquinolin-4-yl)-2-methyl-4-(4H-1,2,4-triazol-3-yl)-1H-benzo[d]imidazol-6-yl)pyridin-2-amine], 210 nM; as for `Cc1cc(-c2cc(-c3nnc[nH]3)c3nc(C)n(-c4ccnc5c(F)ccc(F)c45)c3c2)ccn1` (single isomer, unassigned) [Example 142, 5,8-difluoro-4-(2-methyl-6-(2-methylpyridin-4-yl)-4-(4H-1,2,4-triazol-3-yl)-1H-benzo[d]imidazol-1-yl)quinoline], 11 nM. To `Cc1nc2c(-c3nnc[nH]3)cc(-c3ccnc(N)c3)cc2n1-c1ccnc2cc(F)ccc12` [Example 53, 4-[3-(7-fluoroquinolin-4-yl)-2-methyl-7-(4H-1,2,4-triazol-3-yl)benzimidazol-5-yl]pyridin-2-amine] belongs 180 nM; to `Cc1cc(-n2c(C)nc3c(C(N)=O)cc(-c4ccncc4)cc32)c2cccc(Cl)c2n1` [Example 7, 1-(8-chloro-2-methylquinolin-4-yl)-2-methyl-6-pyridin-4-ylbenzimidazole-4-carboxamide], 16 nM. Turning to `Cc1nc2c(-c3nnc[nH]3)cc(-c3ccnc(N)c3F)cc2n1-c1ccnc2c(Cl)ccc(Cl)c12` (single isomer, unassigned) [Example 120, 4-(1-(5,8-dichloroquinolin-4-yl)-2-methyl-4-(4H-1,2,4-triazol-3-yl)-1H-benzo[d]imidazol-6-yl)-3-fluoropyridin-2-amine], the IC50 is 4 nM. To `Cc1cc(-c2cc(C(N)=O)c3nc(C)n(-c4ccnc5c(Cl)cccc45)c3c2)ccn1` [Example 15, 1-(8-chloroquinolin-4-yl)-2-methyl-6-(2-methylpyridin-4-yl)benzimidazole-4-carboxamide] belongs 150 nM; to `Cc1nc2c(-c3nnc[nH]3)cc(-c3ccnc(C#N)c3)cc2n1-c1ccnc2c(Cl)cccc12` [Example 149, 4-(1-(8-chloroquinolin-4-yl)-2-methyl-4-(4H-1,2,4-triazol-3-yl)-1H-benzo[d]imidazol-6-yl)picolinonitrile], 4 nM. As for `Cc1nc2c(-c3nnc[nH]3)cc(-c3ccnc(C#N)c3)cc2n1-c1ccnc2cc(F)cc(F)c12` (single isomer, unassigned) [Example 115, 4-(1-(5,7-difluoroquinolin-4-yl)-2-methyl-4-(4H-1,2,4-triazol-3-yl)-1H-benzo[d]imidazol-6-yl)picolinonitrile], the figure is 3 nM. As for `Cc1nc2c(-c3nnc[nH]3)cc(-c3ccncc3)cc2n1-c1ccnc2c(F)ccc(F)c12` (atropisomer, axis not shown) [Example 139, 5,8-difluoro-4-(2-methyl-6-(pyridin-4-yl)-4-(4H-1,2,4-triazol-3-yl)-1H-benzo[d]imidazol-1-yl)quinoline], the figure is 6 nM; as for `Cc1nnc(-c2cc(-c3ccncc3)cc3c2nc(C)n3-c2ccnc3c(F)ccc(F)c23)[nH]1` [Example 33, 5,8-difluoro-4-[2-methyl-4-(5-methyl-4H-1,2,4-triazol-3-yl)-6-pyridin-4-ylbenzimidazol-1-yl]quinoline], 110 nM. For the compound `Cc1nc2c(C(N)=O)cc(-c3ccncc3)cc2n1-c1ccnc2c(Cl)ccc(F)c12` [Example 11, 1-(8-chloro-5-fluoroquinolin-4-yl)-2-methyl-6-pyridin-4-ylbenzimidazole-4-carboxamide], the IC50 amounted to 3 nM.

Turning to `COc1nccc(-c2cc(-c3nnc[nH]3)c3nc(C)n(-c4ccnc5c(F)ccc(F)c45)c3c2)n1` [Example 154, 5,8-difluoro-4-(6-(2-methoxypyrimidin-4-yl)-2-methyl-4-(4H-1,2,4-triazol-3-yl)-1H-benzo[d]imidazol-1-yl)quinoline], the IC50 was determined as 9 nM.

For the compound `Cc1nnc(-c2cc(-c3ccnc(N)c3)cc3c2nc(C)n3-c2ccnc3c(Cl)cccc23)[nH]1` [Example 49, 4-[3-(8-chloroquinolin-4-yl)-2-methyl-7-(5-methyl-4H-1,2,4-triazol-3-yl)benzimidazol-5-yl]pyridin-2-amine], the IC50 was determined as 170 nM.

Take `CCCc1nc2c(-c3nnc(C)[nH]3)cc(-c3ccnc(N)c3)cc2n1-c1ccnc2c(Cl)ccc(F)c12` [Example 65, 4-[3-(8-chloro-5-fluoroquinolin-4-yl)-7-(5-methyl-4H-1,2,4-triazol-3-yl)-2-propylbenzimidazol-5-yl]pyridin-2-amine]: the IC50 came out at 16 nM. To `Cc1nc2c(-c3nnc[nH]3)cc(-c3ccnc(C#N)c3)cc2n1-c1ccnc2c(F)ccc(F)c12` [Example 44, 4-[3-(5,8-difluoroquinolin-4-yl)-2-methyl-7-(4H-1,2,4-triazol-3-yl)benzimidazol-5-yl]pyridine-2-carbonitrile] belongs 4 nM; to `Cc1nnc(-c2cc(-c3ccnc(N)c3)cc3c2nc(C2CC2)n3-c2ccnc3c(Cl)ccc(F)c23)[nH]1` [Example 64, 4-[3-(8-chloro-5-fluoroquinolin-4-yl)-2-cyclopropyl-7-(5-methyl-4H-1,2,4-triazol-3-yl)benzimidazol-5-yl]pyridin-2-amine], 200 nM.
